Measured values taken from US7964624B1, “Inhibitors of serine proteases” (priority 2005, dated 2011).

What follows are compounds tested against T1, HCV NS3 protease domain (Hepatitis C virus genotype 1b, UniProt Q9WMX2) (assay: biochemical). Conditions: Enzyme Assay 1 (HCV NS3 Protease Domain Peptide Cleavage Assay) activity, apparent Ki class.
T1 construct: The first 181 amino acids of NS3 (residues 1027-1207 of the viral polyprotein); hexa-histidine (C); made in house; host or cells: E. coli BL21/DE3 pLysS
T1 sequence (Q9WMX2 1027-1207, other chains not shown): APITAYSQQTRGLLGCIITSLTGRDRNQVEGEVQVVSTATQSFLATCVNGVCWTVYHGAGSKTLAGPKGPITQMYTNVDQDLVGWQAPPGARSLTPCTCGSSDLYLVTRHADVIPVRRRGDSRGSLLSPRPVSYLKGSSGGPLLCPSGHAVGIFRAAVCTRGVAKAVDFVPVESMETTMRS

| Compound | Ki |
| --- | --- |
| CCC[C@H](NC(=O)[C@@H]1C[C@]2(CC(c3cccnc3)=NO2)CN1C(=O)[C@@H](NC(=O)CC1CCCCC1)C(C)(C)C)C(=O)C(=O)NC1CC1 [Compound 303] | > 500 nM |
| CCC[C@H](NC(=O)[C@@H]1C[C@]2(CC(c3cccc(Cl)c3)=NO2)CN1C(=O)[C@@H](NC(=O)NC1CC1)C(C)(C)C)C(=O)C(=O)NC1CC1 [Compound 76] | 100 to 500 nM |
| CCC[C@H](NC(=O)[C@@H]1C[C@]2(CC(c3cccc(Cl)c3)=NO2)CN1C(=O)[C@@H](NC(=O)CCn1ccnc1C)C(C)(C)C)C(=O)C(=O)NC1CC1 [Compound 237] | 100 to 500 nM |
| CCC[C@H](NC(=O)[C@@H]1C[C@]2(CC(c3cc(Cl)c(OC)cc3OC)=NO2)CN1C(=O)NCc1ccccc1)C(=O)C(=O)NC1CC1 [Compound 313] | > 500 nM |
| CCC[C@H](NC(=O)[C@@H]1C[C@]2(CC(c3cccc(Cl)c3)=NO2)CN1C(=O)[C@@H](NC(=O)CCC1NC(=O)NC1=O)C(C)(C)C)C(=O)C(=O)NC1CC1 (some centres unmarked) [Compound 505] | 100 to 500 nM |
| CCC[C@H](NC(=O)[C@@H]1C[C@]2(CC(c3cccc(Cl)c3)=NO2)CN1C(=O)[C@@H](NC(=O)[C@@H](C)Cc1ccccc1)C(C)(C)C)C(=O)C(=O)NC1CC1 [Compound 334] | > 500 nM |
| CCC[C@H](NC(=O)[C@@H]1C[C@]2(CC(c3cccc(Cl)c3)=NO2)CN1C(=O)[C@@H](NC(=O)OCCc1ccccc1)C(C)(C)C)C(=O)C(=O)NC1CC1 [Compound 463] | > 500 nM |
| CCC[C@H](NC(=O)[C@@H]1C[C@]2(CC(c3cccc(Cl)c3)=NO2)CN1C(=O)[C@@H](NC(=O)OCCOC)C(C)(C)C)C(=O)C(=O)NC1CC1 [Compound 260] | 100 to 500 nM |
| CCC[C@H](NC(=O)[C@@H]1C[C@]2(CC(c3cccc(Cl)c3)=NO2)CN1C(=O)[C@@H](NC(=O)OCC1CCC1)C(C)(C)C)C(=O)C(=O)NC1CC1 [Compound 27] | 100 to 500 nM |
| CCC[C@H](NC(=O)[C@@H]1C[C@]2(CC(C(=O)c3ccccc3)=NO2)CN1C(=O)[C@@H](NC(=O)O[C@H]1CCOC1)C(C)(C)C)C(=O)C(=O)NC1CC1 [Compound 535] | 100 to 500 nM |
| CCC[C@H](NC(=O)[C@@H]1C[C@]2(CC(c3cccc(Cl)c3)=NO2)CN1C(=O)[C@@H](NC(=O)CC(C)(C)O)C(C)(C)C)C(=O)C(=O)NC1CC1 [Compound 392] | 100 to 500 nM |
| CCC[C@H](NC(=O)[C@@H]1C[C@]2(CC(c3ccc(C)cc3)=NO2)CN1C(=O)[C@@H](NC(=O)O[C@H]1CCOC1)C(C)(C)C)C(=O)C(=O)NC1CC1 [Compound 385] | > 500 nM |
| CCC[C@H](NC(=O)[C@@H]1C[C@]2(CC(c3ccccc3)=NO2)CN1C(=O)c1ccc[nH]1)C(=O)C(=O)NC1CC1 [Compound 584] | > 500 nM |
| CCC[C@H](NC(=O)[C@@H]1C[C@]2(CC(c3cc(F)cc(C(F)(F)F)c3)=NO2)CN1C(=O)[C@@H](NC(=O)O[C@H]1CCOC1)C(C)(C)C)C(=O)C(=O)NC1CC1 [Compound 498] | 100 to 500 nM |
| CCC[C@H](NC(=O)[C@@H]1C[C@]2(CC(c3cccc(Cl)c3)=NO2)CN1C(=O)[C@@H](NC(=O)OCC1CCCC1)C(C)(C)C)C(=O)C(=O)NC1CC1 [Compound 14] | > 500 nM |
| CC(C)(C)[C@H](NC(=O)OCc1ccccc1)C(=O)N1C[C@@]2(CC(c3ccc4c(c3)OCO4)=NO2)C[C@H]1C(=O)NC(CC1CCC1)C(=O)C(N)=O (some centres unmarked) [Compound 415] | 100 to 500 nM |
| CCC[C@H](NC(=O)[C@@H]1C[C@]2(CC(c3ccc(F)c(C)c3)=NO2)CN1C(=O)[C@@H](NC(=O)O[C@H]1CCOC1)C(C)(C)C)C(=O)C(=O)NC1CC1 [Compound 555] | 100 to 500 nM |
| CCC[C@H](NC(=O)[C@@H]1C[C@]2(CC(c3cccc(Cl)c3)=NO2)CN1C(=O)[C@@H](NC(=O)c1n[nH]c(=O)c2ccccc12)C(C)(C)C)C(=O)C(=O)NC1CC1 [Compound 381] | 100 to 500 nM |

| Compound | Ki |
| --- | --- |
| CCC[C@H](NC(=O)[C@@H]1C[C@]2(CC(c3cccc(Cl)c3)=NO2)CN1C(=O)[C@@H](NC(=O)NCc1ccccc1)C(C)(C)C)C(=O)C(=O)NC1CC1 [Compound 583] | 100 to 500 nM |
| CCC[C@H](NC(=O)[C@@H]1C[C@]2(CC(c3ccccc3)=NO2)CN1C(=O)[C@@H](NC(=O)[C@@H](NC(=O)c1cnccn1)C1CCCCC1)C(C)(C)C)C(=O)C(=O)NC1CC1 [Compound 281] | < 100 nM |
| CCCC(NC(=O)[C@@H]1C[C@]2(CC(c3ccc(OC)c(OC)c3)=NO2)CN1C(=O)[C@@H](NC(=O)O[C@H]1CCOC1)C(C)(C)C)C(=O)C(=O)NC1CC1 (some centres unmarked) [Compound 196] | 100 to 500 nM |
| CCC[C@H](NC(=O)[C@@H]1C[C@]2(CC(c3cccc(Cl)c3)=NO2)CN1C(=O)[C@@H](NC(=O)C1CCOCC1)C(C)(C)C)C(=O)C(=O)NC1CC1 [Compound 523] | 100 to 500 nM |
| CCC[C@H](NC(=O)[C@@H]1C[C@]2(CC(c3cccc(Cl)c3)=NO2)CN1C(=O)[C@@H](NC(=O)N(C)CC)C(C)(C)C)C(=O)C(=O)NC1CC1 [Compound 432] | > 500 nM |
| CCC[C@H](NC(=O)[C@@H]1C[C@]2(CC(c3cccc(Cl)c3)=NO2)CN1C(=O)[C@@H](NC(=O)CCC(=O)O)C(C)(C)C)C(=O)C(=O)NC1CC1 [Compound 484] | 100 to 500 nM |
| CCC[C@H](NC(=O)[C@@H]1C[C@]2(CC(c3cccc(Cl)c3)=NO2)CN1C(=O)[C@@H](NC(=O)[C@](C)(O)c1ccccc1)C(C)(C)C)C(=O)C(=O)NC1CC1 [Compound 139] | > 500 nM |
| CCC[C@H](NC(=O)[C@@H]1C[C@]2(CC(c3cccc(Cl)c3)=NO2)CN1C(=O)[C@@H](NC(=O)CCC(C)=O)C(C)(C)C)C(=O)C(=O)NC1CC1 [Compound 44] | 100 to 500 nM |
| CCC[C@H](NC(=O)[C@@H]1C[C@]2(CC(c3cccc(Cl)c3)=NO2)CN1C(=O)[C@@H](NC(=O)CC1CCCCC1)C(C)(C)C)C(=O)C(=O)Nc1cccc(C(C)=O)c1 [Compound 355] | > 500 nM |
| CCC[C@H](NC(=O)[C@@H]1C[C@]2(CC(C(=O)NCc3ccccc3)=NO2)CN1C(=O)[C@@H](NC(=O)O[C@H]1CCOC1)C(C)(C)C)C(=O)C(=O)NC1CC1 [Compound 341] | > 500 nM |
| CCC[C@H](NC(=O)[C@@H]1C[C@]2(CC(c3cccc(Cl)c3)=NO2)CN1C(=O)CN1C[C@H]2CCCC[C@H]2C[C@H]1C(=O)NC(C)(C)C)C(=O)C(=O)NC1CC1 [Compound 276] | > 500 nM |
| CCC[C@H](NC(=O)[C@@H]1C[C@]2(CC(c3cccc(Cl)c3)=NO2)CN1C(=O)[C@@H](NC(=O)N[C@@H](C)c1ccccc1)C(C)(C)C)C(=O)C(=O)NC1CC1 [Compound 333] | 100 to 500 nM |
| CCC[C@H](NC(=O)[C@@H]1C[C@]2(CC(c3ccc(OC)c(Cl)c3)=NO2)CN1C(=O)[C@@H](NC(=O)O[C@H]1CCOC1)C(C)(C)C)C(=O)C(=O)NC1CC1 [Compound 15] | 100 to 500 nM |
| CCC[C@H](NC(=O)[C@@H]1C[C@]2(CC(c3cccc(Cl)c3)=NO2)CN1C(=O)[C@@H](NC(=O)OCCCc1cccnc1)C(C)(C)C)C(=O)C(=O)NC1CC1 [Compound 389] | > 500 nM |
| CCC[C@H](NC(=O)[C@@H]1C[C@]2(CC(c3cc(Cl)c(OC)c(OC)c3)=NO2)CN1C(=O)[C@@H](NC(=O)CC1CCCCC1)C(C)(C)C)C(=O)C(=O)NC1CC1 [Compound 494] | < 100 nM |
| CCC[C@H](NC(=O)[C@@H]1C[C@]2(CC(c3ccc4c(c3)OCO4)=NO2)CN1C(=O)[C@@H](NC(=O)CC1CCOCC1)C(C)(C)C)C(=O)C(N)=O [Compound 375] | > 500 nM |
| CCC[C@H](NC(=O)[C@@H]1C[C@]2(CC(c3cccc(Cl)c3)=NO2)CN1C(=O)CNC(=O)NCc1ccccc1)C(=O)C(=O)NC1CC1 [Compound 205] | > 500 nM |
